1 compound from patent US8840934B2 (Rainbow Pharmaceutical SA, priority 2009, dated 2014) can be followed below.

For one experiment, the system named is hyaluronic acid. Nature of the experiment: Hyaluronic acid levels in treated Quinster rats. It is filed as in vivo. An excerpt:
The levels of hyaluronic acid in patients with high-grade hepatic damage are usually high, but they appeared decreased in the treated Quinster rats. Furthermore, additional biochemical factors appeared improved.

The subject of another experiment is chronic hepatitis B. Nature of the experiment: Clinical treatment of a patient with chronic hepatitis B, viral charge. The format is in vivo, human. To be noted: 3 gr/day by the protocol, before treatment 1.65 × 10^6 IU/ml. As to the method:
(§1) The above protocol of administration can be repeated several times until the completion of the treatment as judged by the clinician. For example, 21 cycles of treatment are performed, which complies with the natural time of regeneration of liver after a partial hepatectomy in patients. Therefore, the duration of the treatment can be from 1 to 6 months or from 3 to 4 months for patients with partial necrosis.
(§2) Patients were treated according to the above described protocol, using a dose of 3 gr/day.

The test system of another experiment is IL-6. Nature of the experiment: Serum IL-6 (ELISA) in TAA-treated Quinster rats given ammonium chloride per os. It is filed as in vivo. To be noted: 12 hours post the third TAA injection, mean ± SD. As for the experimental part:
(§3) Thioacetamid (TAA) was given to adult male Quinster rats with a course of 400 mg TAA/kg B.W. every 24 hours and for 3 consecutive days. […] The animals were sacrificed in 6 and 12 hours after the 3rd treatment with TTA. TNF-α and IL-6 levels were measured in serum (ELISA test) after 12 hours post the third TAA injection and the results are reported in the following table.
(In general: In an ELISA, binding on a coated surface is turned into a signal by an enzyme label.)

The next experiment concerns hepatitis C. The experiment in a line: Clinical treatment of a patient with hepatitis C, viral charge. The format is in vivo, human. To be noted: Patient B, 3 gr/day by the protocol, before treatment 1.65 × 10^8 IU/ml. As to the method: as §1, §2
A further experiment relates to Hepatitis Virus. Nature of the experiment: Use of NH4Cl in treating hepatitis virus, reduction of viral charge across patients. It is filed as in vivo. To be noted: in humans; Patients A and B, 3 months of treatment, 3 gr/day. As to the method: as §2
The subject of a further experiment is TNF-α. Nature of the experiment: Serum TNF-α (ELISA) in TAA-treated Quinster rats given ammonium chloride per os. It is filed as in vivo. To be noted: 12 hours post the third TAA injection, mean ± SD. As to the method:
as §3

SMILES strings stand for the structures.

Take `Cl.N` [NH4Cl, ammonium chloride]: the “levels of hyaluronic acid” value in the experiment on hyaluronic acid is on record as “decreased”. For the same compound, the “Viral charge after 3 months of treatment” value in the experiment on chronic hepatitis B is 1.65 × 10^3 IU/ml; in the experiment on hepatitis C it was 1.65 × 10^6 IU/ml. Also, the IL-6 with IL-6 (Group II, at least 8 animals per group, Control 11 ± 5, Group I 58 ± 9) is on record as 69 ± 12 pg/dL; in the experiment on IL-6 (Group III), 92 ± 8 pg/dL; with IL-6 (Group IV), 73 ± 12 pg/dL. For the same compound, the “factor of reduction of the viral charge” value in the experiment on Hepatitis Virus is reported as “at least 10^2”. The TNF-α in the experiment with TNF-α (Group II, Control 21 ± 4, Group I 65 ± 15) is listed as 52 ± 17 pg/dL; in the experiment with TNF-α (Group III), 32 ± 6 pg/dL; with TNF-α (Group IV) it was 45 ± 9 pg/dL.
